From patent US20260374773A1, “MULTI-CYCLIC IRAK AND FLT3 INHIBITING COMPOUNDS AND USES THEREOF” (CHILDREN'S HOSPITAL MEDICAL CENTER, priority 2022, published 2026)

Experiments:
IRAK4 = molecular target: T1, IRAK4 (Homo sapiens, UniProt Q9NWZ3); test: DiscoverX KINOMEscan active site-directed competition binding, IRAK4; settings: no ATP
T1 sequence (Q9NWZ3 1-460): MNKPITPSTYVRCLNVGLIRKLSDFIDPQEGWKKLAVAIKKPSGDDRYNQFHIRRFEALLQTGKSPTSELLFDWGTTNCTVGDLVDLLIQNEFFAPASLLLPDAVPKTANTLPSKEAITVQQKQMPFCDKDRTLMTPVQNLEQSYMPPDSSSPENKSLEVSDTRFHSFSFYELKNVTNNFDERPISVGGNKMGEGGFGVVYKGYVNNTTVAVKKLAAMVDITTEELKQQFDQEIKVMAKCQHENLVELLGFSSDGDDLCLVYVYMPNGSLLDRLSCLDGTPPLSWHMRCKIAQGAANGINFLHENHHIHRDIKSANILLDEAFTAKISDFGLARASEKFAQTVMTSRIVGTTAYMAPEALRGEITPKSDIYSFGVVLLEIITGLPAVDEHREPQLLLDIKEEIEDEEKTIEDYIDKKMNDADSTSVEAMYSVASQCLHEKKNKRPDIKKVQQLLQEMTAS
Source text: (§1) Kinase binding data were obtained for various exemplary compounds prepared according to Examples 1-8 using the DiscoverX KINOMEscan® active site-directed competition binding site-directed assay protocol described below. […] As a result, the data report thermodynamic interaction affinities (Kd values), rather than IC50 values that are dependent on ATP concentrations. The assay uses a DNA-tagged version of the protein kinase, and an immobilized ligand bound to a solid support. Compounds that directly or indirectly prevent kinase binding to the immobilized ligand reduce the amount of kinase captured on the solid support, which is detected using an ultra-sensitive qPCR method. Affinity constants reported from the assay have been reported to be independent of the immobilized ligand used that is coupled to the solid support (See supplemental information in Fabian, M. A. et. al., (2005) Nat. Biotechnol. 23, 329-336; Wodicka, L. M. et. al., (2010) Chem. Biol. 17, 1241-1249.)
(§2) Kinase-tagged T7 phage strains were prepared in an E. coli host derived from the BL21 strain. E. coli were grown to log-phase and infected with T7 phage and incubated with shaking at 32 °C until lysis. The lysates were centrifuged and filtered to remove cell debris. The remaining kinases were produced in HEK-293 cells and subsequently tagged with DNA for qPCR detection. Streptavidin-coated magnetic beads were treated with biotinylated small molecule ligands for 30 minutes at room temperature to generate affinity resins for kinase assays. The liganded beads were blocked with excess biotin and washed with blocking buffer (SeaBlock (Pierce), 1% BSA, 0.05% Tween 20, 1 mM DTT) to remove unbound ligand and to reduce non-specific binding. […] Test compounds were prepared as 111x stocks in 100% DMSO. Kds were determined using an 11-point 3-fold compound dilution series with three DMSO control points. All compounds for Kd measurements are distributed by acoustic transfer (non-contact dispensing) in 100% DMSO. The compounds were then diluted directly into the assays such that the final concentration of DMSO was 0.9%. All reactions were performed in polypropylene 384-well plates. Each was a final volume of 0.02 mL. The assay plates were incubated at room temperature with shaking for 1 hour and the affinity beads were washed with wash buffer (1×PBS, 0.05% Tween 20). The beads were then re-suspended in elution buffer (1×PBS, 0.05% Tween 20, 0.5 μM nonbiotinylated affinity ligand) and incubated at room temperature with shaking for 30 minutes. The kinase concentration in the eluates was measured by qPCR. Binding constants (Kds) were calculated with a standard dose-response curve using the Hill equation. The Hill Slope was set to −1. Curves were fitted using a non-linear least square fit with the Levenberg-Marquardt algorithm.
as §1, with “9-12” for “1-8”
(§3) Kinase-tagged T7 phage strains were prepared in an E. coli host derived from the BL21 strain. […]

FLT3 D835V = molecular target: T2, FLT3 D835V (Homo sapiens, UniProt P36888, D835V); test: DiscoverX KINOMEscan active site-directed competition binding, FLT3 D835V; settings: no ATP
T2 sequence (P36888 27-993 D835V): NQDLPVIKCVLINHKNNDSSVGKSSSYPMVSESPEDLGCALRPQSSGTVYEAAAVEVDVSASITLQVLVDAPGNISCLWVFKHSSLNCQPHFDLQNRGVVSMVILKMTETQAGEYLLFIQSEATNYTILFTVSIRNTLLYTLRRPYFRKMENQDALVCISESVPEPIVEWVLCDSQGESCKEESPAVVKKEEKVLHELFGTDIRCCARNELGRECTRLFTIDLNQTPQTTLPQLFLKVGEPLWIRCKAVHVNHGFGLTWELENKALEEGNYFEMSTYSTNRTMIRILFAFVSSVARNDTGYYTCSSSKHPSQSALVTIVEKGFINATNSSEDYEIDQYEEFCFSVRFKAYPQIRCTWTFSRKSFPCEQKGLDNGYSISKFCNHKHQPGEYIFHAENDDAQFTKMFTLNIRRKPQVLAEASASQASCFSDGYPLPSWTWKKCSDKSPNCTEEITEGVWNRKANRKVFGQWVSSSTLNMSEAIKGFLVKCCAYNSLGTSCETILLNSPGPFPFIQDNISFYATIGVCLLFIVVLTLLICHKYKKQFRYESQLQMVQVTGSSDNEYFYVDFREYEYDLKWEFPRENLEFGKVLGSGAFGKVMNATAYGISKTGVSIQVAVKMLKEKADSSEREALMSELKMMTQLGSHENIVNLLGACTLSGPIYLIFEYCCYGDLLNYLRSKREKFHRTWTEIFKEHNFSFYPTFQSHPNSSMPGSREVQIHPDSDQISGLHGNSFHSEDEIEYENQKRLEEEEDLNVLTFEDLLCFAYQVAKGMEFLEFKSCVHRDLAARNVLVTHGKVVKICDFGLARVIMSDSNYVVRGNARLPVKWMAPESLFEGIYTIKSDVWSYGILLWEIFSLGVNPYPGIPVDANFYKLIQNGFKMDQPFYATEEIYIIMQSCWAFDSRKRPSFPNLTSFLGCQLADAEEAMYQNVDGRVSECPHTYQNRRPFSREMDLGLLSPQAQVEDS
Source text: as §1, §2
as §1, with “9-12” for “1-8”
as §3

Compound | Kd (IRAK4; Table 12) [pM] | Kd (FLT3 D835V; Table 12) [pM] | Kd (IRAK4; Table 18) [pM] | Kd (FLT3 D835V; Table 18) [pM]
COc1cn2ncc(-c3nc(N[C@H]4CNCC[C@@H]4F)c(C#N)cc3F)c2nc1C1CC1 [Compound 7, 6-(5-cyclopropyl-6-methoxypyrazolo[1,5-a]pyrimidin-3-yl)-5-fluoro-2-(((3S,4S)-4-fluoropiperidin-3-yl)amino)nicotinonitrile] | < 170 | < 170 | – | –
COc1cn2ncc(-c3cncc(N[C@H]4CNCC[C@@H]4F)n3)c2nc1C1CC1 [Compound 12a, 6-(5-cyclopropyl-6-methoxypyrazolo[1,5-a]pyrimidin-3-yl)-N-((3S,4S)-4-fluoropiperidin-3-yl)pyrazin-2-amine] | – | – | < 170 | < 170
COc1cn2ncc(-c3nc(N[C@@H]4CCCNC4)ncc3F)c2nc1C1CC1 [Compound 14a, (R)-4-(5-cyclopropyl-6-methoxypyrazolo[1,5-a]pyrimidin-3-yl)-5-fluoro-N-(piperidin-3-yl)pyrimidin-2-amine] | – | – | < 170 | < 170
COc1cn2ncc(-c3nc(N[C@H]4CNCC[C@@H]4F)ncc3F)c2nc1C(C)(C)O [Compound 6a, 2-(3-(5-fluoro-2-(((3S,4S)-4-fluoropiperidin-3-yl)amino)pyrimidin-4-yl)-6-methoxypyrazolo[1,5-a]pyrimidin-5-yl)propan-2-ol] | – | – | 200 | < 170
COc1cn2ncc(-c3ccnc(N[C@H]4CNCC[C@@H]4F)n3)c2nc1C1CC1 [Compound 7a, 4-(5-cyclopropyl-6-methoxypyrazolo[1,5-a]pyrimidin-3-yl)-N-((3S,4S)-4-fluoropiperidin-3-yl)pyrimidin-2-amine] | – | – | 360 | 480
COc1cn2ncc(-c3nc(N[C@H]4CNCC[C@@H]4F)c(F)cc3F)c2nc1C(C)(C)O [Compound 13, 2-(3-(3,5-difluoro-6-(((3S,4S)-4-fluoropiperidin-3-yl)amino)pyridin-2-yl)-6-methoxypyrazolo[1,5-a]pyrimidin-5-yl)propan-2-ol] | < 170 | < 170 | – | –
COc1cn2ncc(-c3nc(N[C@H]4CNCC[C@@H]4F)c(C#N)cc3F)c2nc1C(C)(C)O [Compound 10, 5-fluoro-2-(((3S,4S)-4-fluoropiperidin-3-yl)amino)-6-(5-(2-hydroxypropan-2-yl)-6-methoxypyrazolo[1,5-a]pyrimidin-3-yl)nicotinonitrile] | < 170 | < 170 | – | –
COc1cn2ncc(-c3nc(N[C@H]4CNCC[C@@H]4F)ncc3F)c2nc1C1CC1 [Compound 15a, 4-(5-cyclopropyl-6-methoxypyrazolo[1,5-a]pyrimidin-3-yl)-5-fluoro-N-((3S,4S)-4-fluoropiperidin-3-yl)pyrimidin-2-amine] | – | – | < 170 | 280
